Data as given in patent US20090075937A1, “LHRH ANTAGONISTS FOR THE TREATMENT OF LOWER URINARY TRACT SYMPTOMS” (AETERNA ZENTARIS GmbH, priority 2007, published 2009).
Non-standard residues stand in square brackets, D forms with d. Residues, ends and D or L forms follow the SMILES beside them. dPhe(4-Cl) = N[C@H](Cc1ccc(Cl)cc1)C(=O)O; d2Nal = N[C@H](Cc1ccc2ccccc2c1)C(=O)O; dCit = NC(=O)NCCC[C@@H](N)C(=O)O; d3Pal = N[C@H](Cc1cccnc1)C(=O)O

Legend:
study subjects [1] = assay: Nocturia: how often the study subjects got up during the night in order to urinate; type: in vivo, human
Description: (§1) The results shown are percentage variations from baseline at the beginning of the study (week 0).
The results shown are mean values, how often the study subjects had to get up.

study subjects [2] = assay: Frequency of emptying: how often the study subjects had to urinate a second time within a 2 hour test period; type: in vivo, human
Description: as §1
The results shown are mean values, how often the study subjects had to urinate a second time.

study subjects [3] = assay: IPSS irritative subscore (sum of nocturia, frequency of emptying and urgency to urinate); type: in vivo, human; conditions: for IPSS irritative subscore (nocturia, frequency of emptying, urgency to urinate): percentage variation from baseline
Description: as §1

[4] = system: testosterone blood levels; assay: Median testosterone blood levels / chemical (hormonal) castration; conditions: for Testosterone [ng/mL] (median): blood level
Description: Preferably, chemical (hormonal) castration is a testosterone castration and refers to a testosterone blood level of equal or below 1.2 ng/mL, preferably 0.5 ng/mL.
Study subjects were treated with Cetrorelix pamoate with the following doses according to the following administration schemes: • 60 mg Cetrorelix pamaote administered at week 0 and 30 mg Cetrorelix pamaote administered at week 2 (treatment period) followed by up to 5 months of no treatment (treatment-free period) • 60 mg Cetrorelix pamaote administered at week 0 and 60 mg Cetrorelix pamaote administered at week 2 (treatment period) followed by up to 5 months of no treatment (treatment-free period)
Study subjects were treated with Cetrorelix acetate with the following doses according to the following administration schemes: • 5 mg Cetrorelix acetate administered at week 0, 1, 2 and 3 (total monthly dose of 20 mg) (treatment period) followed by up to 4 months of no treatment (treatment-free period) • 10 mg Cetrorelix acetate administered at week 0 and 10 mg Cetrorelix acetate administered at week 2 (treatment period) followed by up to 4 months of no treatment (treatment-free period) • 10 mg Cetrorelix acetate administered at week 0, 1, 2 and 3 (total monthly dose of 40 mg) (treatment period) followed by up to 4 months of no treatment (treatment-free period)
Study subjects were treated with Ozarelix with the following doses according to the following administration schemes: • 15 mg Ozarelix administered at week 0 and 15 mg Ozarelix administered at week 2 (treatment period) followed by up to 4 months of no treatment (treatment-free period)

[5] = 2 × 10: 10 mg at week 0 and week 2, Week 0
[6] = 2 × 10: 10 mg at week 0 and week 2, Week 4
[7] = 2 × 10: 10 mg at week 0 and week 2, Week 8
[8] = 2 × 10: 10 mg at week 0 and week 2, Week 12
[9] = 2 × 10: 10 mg at week 0 and week 2, Week 16
[10] = 2 × 10: 10 mg at week 0 and week 2, Week 20
[11] = 4 × 5: 5 mg at week 0, 1, 2 and 3, Week 0
[12] = 4 × 5: 5 mg at week 0, 1, 2 and 3, Week 4
[13] = 4 × 5: 5 mg at week 0, 1, 2 and 3, Week 8
[14] = 4 × 5: 5 mg at week 0, 1, 2 and 3, Week 12
[15] = 4 × 5: 5 mg at week 0, 1, 2 and 3, Week 16
[16] = 4 × 5: 5 mg at week 0, 1, 2 and 3, Week 20
[17] = 4 × 10: 10 mg at week 0, 1, 2 and 3, Week 0
[18] = 4 × 10: 10 mg at week 0, 1, 2 and 3, Week 4
[19] = 4 × 10: 10 mg at week 0, 1, 2 and 3, Week 8
[20] = 4 × 10: 10 mg at week 0, 1, 2 and 3, Week 12
[21] = 4 × 10: 10 mg at week 0, 1, 2 and 3, Week 16
[22] = 4 × 10: 10 mg at week 0, 1, 2 and 3, Week 20
[23] = 5+5+5+5 mg, 10+10 mg and 10+10+10+10 mg schemes, largest difference, n-times mean

CC(=O)N[C@H](Cc1ccc2ccccc2c1)C(=O)N[C@H](Cc1ccc(Cl)cc1)C(=O)N[C@H](Cc1cccnc1)C(=O)N[C@@H](CO)C(=O)N[C@@H](Cc1ccc(O)cc1)C(=O)N[C@H](CCCNC(N)=O)C(=O)N[C@@H](CC(C)C)C(=O)N[C@@H](CCCNC(=N)N)C(=O)N1CCC[C@H]1C(=O)N[C@H](C)C(N)=O [Cetrorelix acetate] (Ac-[d2Nal][dPhe(4-Cl)][d3Pal]SY[dCit]LRP[dA]-NH2)
Nocturia (n-times, mean) (study subjects [1]; [5]): 2.69 n-times
Nocturia (n-times, mean) (study subjects [1]; [6]): 2.00 n-times
Nocturia (n-times, mean) (study subjects [1]; [7]): 2.06 n-times
Nocturia (n-times, mean) (study subjects [1]; [8]): 1.97 n-times
Nocturia (n-times, mean) (study subjects [1]; [9]): 1.97 n-times
Nocturia (n-times, mean) (study subjects [1]; [10]): 2.16 n-times
Nocturia (n-times, mean) (study subjects [1]; [11]): 2.57 n-times
Nocturia (n-times, mean) (study subjects [1]; [12]): 2.09 n-times
Nocturia (n-times, mean) (study subjects [1]; [13]): 1.94 n-times
Nocturia (n-times, mean) (study subjects [1]; [14]): 1.85 n-times
Nocturia (n-times, mean) (study subjects [1]; [15]): 1.79 n-times
Nocturia (n-times, mean) (study subjects [1]; [16]): 1.85 n-times
Nocturia (n-times, mean) (study subjects [1]; [17]): 2.63 n-times
Nocturia (n-times, mean) (study subjects [1]; [18]): 1.79 n-times
Nocturia (n-times, mean) (study subjects [1]; [19]): 1.78 n-times
Nocturia (n-times, mean) (study subjects [1]; [20]): 1.75 n-times
Nocturia (n-times, mean) (study subjects [1]; [21]): 1.87 n-times
Nocturia (n-times, mean) (study subjects [1]; [22]): 2.16 n-times
decrease in nocturia frequency compared to placebo (study subjects [1]; [23]): up to 0.71
Frequency of emptying (n-times, mean) (study subjects [2]; [5]): 2.29 n-times
Frequency of emptying (n-times, mean) (study subjects [2]; [6]): 1.86 n-times
Frequency of emptying (n-times, mean) (study subjects [2]; [7]): 1.58 n-times
Frequency of emptying (n-times, mean) (study subjects [2]; [8]): 1.55 n-times
Frequency of emptying (n-times, mean) (study subjects [2]; [9]): 1.45 n-times
Frequency of emptying (n-times, mean) (study subjects [2]; [10]): 1.66 n-times
Frequency of emptying (n-times, mean) (study subjects [2]; [11]): 2.49 n-times
Frequency of emptying (n-times, mean) (study subjects [2]; [12]): 2.23 n-times
Frequency of emptying (n-times, mean) (study subjects [2]; [13]): 2.00 n-times
Frequency of emptying (n-times, mean) (study subjects [2]; [14]): 1.73 n-times
Frequency of emptying (n-times, mean) (study subjects [2]; [15]): 1.52 n-times
Frequency of emptying (n-times, mean) (study subjects [2]; [16]): 1.79 n-times
Frequency of emptying (n-times, mean) (study subjects [2]; [17]): 2.86 n-times
Frequency of emptying (n-times, mean) (study subjects [2]; [18]): 1.62 n-times
Frequency of emptying (n-times, mean) (study subjects [2]; [19]): 1.66 n-times
Frequency of emptying (n-times, mean) (study subjects [2]; [20]): 1.81 n-times
Frequency of emptying (n-times, mean) (study subjects [2]; [21]): 1.65 n-times
Frequency of emptying (n-times, mean) (study subjects [2]; [22]): 1.78 n-times
decrease in frequency of emptying compared to placebo (study subjects [2]; [23]): up to 1.35
further decrease in IPSS irritative subscore compared to placebo (study subjects [3]; 5+5+5+5 mg, 10+10 mg and 10+10+10+10 mg schemes, largest difference): up to 43%
IPSS irritative subscore (nocturia, frequency of emptying, urgency to urinate) (study subjects [3]; [5]): 0%
IPSS irritative subscore (nocturia, frequency of emptying, urgency to urinate) (study subjects [3]; [6]): −25%
IPSS irritative subscore (nocturia, frequency of emptying, urgency to urinate) (study subjects [3]; [7]): −33.3%
IPSS irritative subscore (nocturia, frequency of emptying, urgency to urinate) (study subjects [3]; [8]): −33.3%
IPSS irritative subscore (nocturia, frequency of emptying, urgency to urinate) (study subjects [3]; [9]): −42.9%
IPSS irritative subscore (nocturia, frequency of emptying, urgency to urinate) (study subjects [3]; [10]): −29.2%
IPSS irritative subscore (nocturia, frequency of emptying, urgency to urinate) (study subjects [3]; [11]): 0%
IPSS irritative subscore (nocturia, frequency of emptying, urgency to urinate) (study subjects [3]; [12]): −16.7%
IPSS irritative subscore (nocturia, frequency of emptying, urgency to urinate) (study subjects [3]; [13]): −25%
IPSS irritative subscore (nocturia, frequency of emptying, urgency to urinate) (study subjects [3]; [14]): −28.6%
IPSS irritative subscore (nocturia, frequency of emptying, urgency to urinate) (study subjects [3]; [15]): −30.8%
IPSS irritative subscore (nocturia, frequency of emptying, urgency to urinate) (study subjects [3]; [16]): −29.7%
IPSS irritative subscore (nocturia, frequency of emptying, urgency to urinate) (study subjects [3]; [17]): 0%
IPSS irritative subscore (nocturia, frequency of emptying, urgency to urinate) (study subjects [3]; [18]): −29.3%
IPSS irritative subscore (nocturia, frequency of emptying, urgency to urinate) (study subjects [3]; [19]): −31%
IPSS irritative subscore (nocturia, frequency of emptying, urgency to urinate) (study subjects [3]; [20]): −25%
IPSS irritative subscore (nocturia, frequency of emptying, urgency to urinate) (study subjects [3]; [21]): −28.6%
IPSS irritative subscore (nocturia, frequency of emptying, urgency to urinate) (study subjects [3]; [22]): −25%
chemical (hormonal) castration ([4]; 5+5+5+5 mg, 10+10 mg and 10+10+10+10 mg schemes, conclusion from median testosterone blood levels): successfully prevented
Testosterone [ng/mL] (median) [4, 5]: 3.27 ng/mL
Testosterone [ng/mL] (median) [4, 6]: 4.41 ng/mL
Testosterone [ng/mL] (median) [4, 7]: 3.73 ng/mL
Testosterone [ng/mL] (median) [4, 8]: 4.45 ng/mL
Testosterone [ng/mL] (median) [4, 9]: 4.16 ng/mL
Testosterone [ng/mL] (median) [4, 10]: 4.12 ng/mL
Testosterone [ng/mL] (median) [4, 11]: 3.42 ng/mL
Testosterone [ng/mL] (median) [4, 12]: 2.95 ng/mL
Testosterone [ng/mL] (median) [4, 13]: 3.77 ng/mL
Testosterone [ng/mL] (median) [4, 14]: 4.11 ng/mL
Testosterone [ng/mL] (median) [4, 15]: 3.91 ng/mL
Testosterone [ng/mL] (median) [4, 16]: 3.49 ng/mL
Testosterone [ng/mL] (median) [4, 17]: 3.41 ng/mL
Testosterone [ng/mL] (median) [4, 18]: 2.17 ng/mL
Testosterone [ng/mL] (median) [4, 19]: 3.82 ng/mL
Testosterone [ng/mL] (median) [4, 20]: 4.32 ng/mL
Testosterone [ng/mL] (median) [4, 21]: 4.32 ng/mL
Testosterone [ng/mL] (median) [4, 22]: 4.06 ng/mL
